In ChEMBL document CHEMBL5678818, “Discovery of potent SOS1 inhibitors that block RAS activation via disruption of the RAS-SOS1 interaction” (Proc Natl Acad Sci U S A, 2019):

Tests used:
[1] = molecular target: T1, Serine/threonine-protein kinase 17B (Homo sapiens) (UniProt O94768); assay: Inhibition of DRAK2 (unknown origin) assessed as residual activity at 100 nM by KINOMEscan analysis relative to control
T1 sequence (whole entry): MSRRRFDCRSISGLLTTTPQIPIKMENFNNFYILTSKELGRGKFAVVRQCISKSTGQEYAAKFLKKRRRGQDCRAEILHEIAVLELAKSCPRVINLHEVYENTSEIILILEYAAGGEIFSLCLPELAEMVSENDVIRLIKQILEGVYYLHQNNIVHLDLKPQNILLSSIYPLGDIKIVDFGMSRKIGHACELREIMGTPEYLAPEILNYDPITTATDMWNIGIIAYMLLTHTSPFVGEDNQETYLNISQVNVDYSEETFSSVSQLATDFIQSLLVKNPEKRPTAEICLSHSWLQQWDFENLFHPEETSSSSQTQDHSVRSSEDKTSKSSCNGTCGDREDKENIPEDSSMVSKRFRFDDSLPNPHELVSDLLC

[2] = test system: Proto-oncogene tyrosine-protein kinase receptor Ret (Homo sapiens), P07949 [V804M]; assay: Inhibition of RET V804M mutant (unknown origin) assessed as residual activity at 100 nM by KINOMEscan analysis relative to control
Chain of Proto-oncogene tyrosine-protein kinase receptor Ret (Homo sapiens), P07949 [V804M] (P07949 whole entry V804M): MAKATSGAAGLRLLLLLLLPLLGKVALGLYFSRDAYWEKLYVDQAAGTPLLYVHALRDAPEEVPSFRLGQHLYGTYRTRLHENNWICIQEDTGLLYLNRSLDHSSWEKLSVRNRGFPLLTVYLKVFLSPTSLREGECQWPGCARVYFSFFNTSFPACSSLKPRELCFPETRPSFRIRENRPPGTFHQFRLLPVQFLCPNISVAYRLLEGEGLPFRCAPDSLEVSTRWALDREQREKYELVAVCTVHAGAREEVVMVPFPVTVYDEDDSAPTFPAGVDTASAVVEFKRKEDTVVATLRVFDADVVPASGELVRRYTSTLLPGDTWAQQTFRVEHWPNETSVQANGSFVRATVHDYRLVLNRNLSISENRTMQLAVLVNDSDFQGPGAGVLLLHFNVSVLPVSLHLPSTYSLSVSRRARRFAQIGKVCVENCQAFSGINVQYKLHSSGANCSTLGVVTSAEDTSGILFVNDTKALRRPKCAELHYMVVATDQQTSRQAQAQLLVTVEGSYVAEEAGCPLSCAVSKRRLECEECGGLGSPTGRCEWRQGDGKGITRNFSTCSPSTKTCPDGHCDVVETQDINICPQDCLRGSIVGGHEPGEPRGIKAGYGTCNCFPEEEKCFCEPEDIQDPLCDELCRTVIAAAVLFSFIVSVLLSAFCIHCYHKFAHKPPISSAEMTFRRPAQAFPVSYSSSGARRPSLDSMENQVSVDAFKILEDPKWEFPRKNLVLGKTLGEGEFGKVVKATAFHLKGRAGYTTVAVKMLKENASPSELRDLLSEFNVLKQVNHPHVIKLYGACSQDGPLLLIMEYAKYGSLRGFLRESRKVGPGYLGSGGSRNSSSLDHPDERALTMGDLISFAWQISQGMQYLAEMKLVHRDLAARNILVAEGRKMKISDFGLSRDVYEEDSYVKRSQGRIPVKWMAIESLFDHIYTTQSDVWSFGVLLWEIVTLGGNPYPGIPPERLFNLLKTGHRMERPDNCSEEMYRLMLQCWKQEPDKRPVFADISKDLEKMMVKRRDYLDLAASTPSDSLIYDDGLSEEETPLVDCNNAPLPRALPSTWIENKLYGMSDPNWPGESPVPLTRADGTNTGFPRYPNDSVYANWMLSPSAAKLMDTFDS

[3] = molecular target: Cyclin-dependent kinase 11B (Homo sapiens) (UniProt P21127); assay: Inhibition of CDC2L1 (unknown origin) assessed as residual activity at 100 nM by KINOMEscan analysis relative to control
Chain of Cyclin-dependent kinase 11B (Homo sapiens) (P21127 whole entry): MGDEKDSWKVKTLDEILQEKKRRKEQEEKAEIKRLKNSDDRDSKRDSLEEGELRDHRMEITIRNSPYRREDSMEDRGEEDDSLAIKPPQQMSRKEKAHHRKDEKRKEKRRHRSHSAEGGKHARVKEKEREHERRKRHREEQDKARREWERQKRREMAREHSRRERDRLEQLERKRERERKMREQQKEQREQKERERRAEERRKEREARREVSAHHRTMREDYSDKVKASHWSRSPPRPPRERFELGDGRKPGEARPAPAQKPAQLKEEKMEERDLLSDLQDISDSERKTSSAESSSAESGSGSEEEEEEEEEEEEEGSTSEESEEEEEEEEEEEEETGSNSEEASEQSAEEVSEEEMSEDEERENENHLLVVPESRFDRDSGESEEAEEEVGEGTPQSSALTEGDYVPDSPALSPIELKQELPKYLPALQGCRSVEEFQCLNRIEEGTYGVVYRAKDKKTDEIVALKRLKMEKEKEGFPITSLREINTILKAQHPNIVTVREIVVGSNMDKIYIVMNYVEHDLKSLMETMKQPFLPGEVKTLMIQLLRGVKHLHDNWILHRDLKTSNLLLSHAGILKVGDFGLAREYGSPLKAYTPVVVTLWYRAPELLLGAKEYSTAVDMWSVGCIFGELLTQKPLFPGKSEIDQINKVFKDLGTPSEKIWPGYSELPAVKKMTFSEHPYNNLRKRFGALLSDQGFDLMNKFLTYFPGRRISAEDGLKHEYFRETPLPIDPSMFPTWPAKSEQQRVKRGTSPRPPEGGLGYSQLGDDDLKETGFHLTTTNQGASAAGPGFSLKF

[4] = molecular target: Serine/threonine-protein kinase PAK 5 (Homo sapiens) (UniProt Q9P286); assay: Inhibition of PAK7 (unknown origin) assessed as residual activity at 100 nM by KINOMEscan analysis relative to control
[5] = molecular target: Myosin light chain kinase 2, skeletal/cardiac muscle (Homo sapiens) (UniProt Q9H1R3); assay: Inhibition of MYLK2 (unknown origin) assessed as residual activity at 100 nM by KINOMEscan analysis relative to control
Chain of Myosin light chain kinase 2, skeletal/cardiac muscle (Homo sapiens) (Q9H1R3 whole entry, canonical isoform): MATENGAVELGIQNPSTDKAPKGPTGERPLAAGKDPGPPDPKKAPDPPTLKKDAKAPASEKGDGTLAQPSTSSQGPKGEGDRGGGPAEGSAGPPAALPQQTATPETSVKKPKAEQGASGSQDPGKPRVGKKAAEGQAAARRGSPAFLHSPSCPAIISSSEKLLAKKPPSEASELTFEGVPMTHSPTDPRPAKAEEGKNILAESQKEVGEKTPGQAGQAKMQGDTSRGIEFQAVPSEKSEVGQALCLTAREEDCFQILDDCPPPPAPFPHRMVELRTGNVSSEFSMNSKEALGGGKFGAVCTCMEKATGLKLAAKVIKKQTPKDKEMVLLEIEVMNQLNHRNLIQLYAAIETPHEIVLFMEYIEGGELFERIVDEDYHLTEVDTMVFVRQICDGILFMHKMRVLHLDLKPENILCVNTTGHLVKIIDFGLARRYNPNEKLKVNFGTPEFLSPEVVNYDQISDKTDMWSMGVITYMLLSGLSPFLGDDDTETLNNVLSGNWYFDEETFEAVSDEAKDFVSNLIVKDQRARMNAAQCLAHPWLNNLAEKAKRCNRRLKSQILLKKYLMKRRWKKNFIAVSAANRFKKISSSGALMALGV

[6] = molecular target: Casein kinase I isoform delta (Homo sapiens) (UniProt P48730); assay: Inhibition of CSNK1D (unknown origin) assessed as residual activity at 100 nM by KINOMEscan analysis relative to control
[7] = molecular target: Casein kinase I isoform gamma-3 (Homo sapiens) (UniProt Q9Y6M4); assay: Inhibition of CSNK1G3 (unknown origin) assessed as residual activity at 100 nM by KINOMEscan analysis relative to control
Chain of Casein kinase I isoform gamma-3 (Homo sapiens) (Q9Y6M4 whole entry, looked up, canonical isoform): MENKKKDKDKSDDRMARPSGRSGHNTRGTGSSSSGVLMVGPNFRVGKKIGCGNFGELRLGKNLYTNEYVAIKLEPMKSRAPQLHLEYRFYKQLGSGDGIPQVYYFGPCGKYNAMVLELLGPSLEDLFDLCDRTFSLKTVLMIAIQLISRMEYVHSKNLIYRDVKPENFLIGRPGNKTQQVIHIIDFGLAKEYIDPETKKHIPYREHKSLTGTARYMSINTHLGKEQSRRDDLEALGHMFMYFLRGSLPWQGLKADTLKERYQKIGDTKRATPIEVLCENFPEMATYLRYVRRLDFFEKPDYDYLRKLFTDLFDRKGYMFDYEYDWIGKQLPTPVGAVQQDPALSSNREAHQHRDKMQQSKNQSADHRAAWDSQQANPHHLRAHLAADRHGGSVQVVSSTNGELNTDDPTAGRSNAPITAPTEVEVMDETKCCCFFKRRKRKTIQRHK

[8] = molecular target: Activin receptor type-2A (Homo sapiens) (UniProt P27037); assay: Inhibition of ACVR2A (unknown origin) assessed as residual activity at 100 nM by KINOMEscan analysis relative to control
[9] = molecular target: T2, Aurora kinase A (Homo sapiens) (UniProt O14965); assay: Inhibition of AURKA (unknown origin) assessed as residual activity at 100 nM by KINOMEscan analysis relative to control
T2 sequence (whole entry): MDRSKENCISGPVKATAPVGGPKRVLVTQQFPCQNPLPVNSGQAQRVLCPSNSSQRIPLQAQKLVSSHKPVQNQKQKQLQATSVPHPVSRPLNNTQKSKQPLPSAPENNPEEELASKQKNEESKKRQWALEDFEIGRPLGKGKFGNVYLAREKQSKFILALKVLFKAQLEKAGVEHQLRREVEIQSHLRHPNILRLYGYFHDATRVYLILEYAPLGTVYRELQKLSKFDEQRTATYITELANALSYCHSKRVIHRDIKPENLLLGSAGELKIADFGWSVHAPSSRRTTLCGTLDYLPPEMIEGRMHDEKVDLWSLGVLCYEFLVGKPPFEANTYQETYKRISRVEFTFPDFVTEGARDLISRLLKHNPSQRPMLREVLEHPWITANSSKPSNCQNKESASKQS

[10] = molecular target: T3, Mitogen-activated protein kinase kinase kinase 6 (Homo sapiens) (UniProt O95382); assay: Inhibition of ASK2 (unknown origin) assessed as residual activity at 100 nM by KINOMEscan analysis relative to control
T3 sequence (whole entry): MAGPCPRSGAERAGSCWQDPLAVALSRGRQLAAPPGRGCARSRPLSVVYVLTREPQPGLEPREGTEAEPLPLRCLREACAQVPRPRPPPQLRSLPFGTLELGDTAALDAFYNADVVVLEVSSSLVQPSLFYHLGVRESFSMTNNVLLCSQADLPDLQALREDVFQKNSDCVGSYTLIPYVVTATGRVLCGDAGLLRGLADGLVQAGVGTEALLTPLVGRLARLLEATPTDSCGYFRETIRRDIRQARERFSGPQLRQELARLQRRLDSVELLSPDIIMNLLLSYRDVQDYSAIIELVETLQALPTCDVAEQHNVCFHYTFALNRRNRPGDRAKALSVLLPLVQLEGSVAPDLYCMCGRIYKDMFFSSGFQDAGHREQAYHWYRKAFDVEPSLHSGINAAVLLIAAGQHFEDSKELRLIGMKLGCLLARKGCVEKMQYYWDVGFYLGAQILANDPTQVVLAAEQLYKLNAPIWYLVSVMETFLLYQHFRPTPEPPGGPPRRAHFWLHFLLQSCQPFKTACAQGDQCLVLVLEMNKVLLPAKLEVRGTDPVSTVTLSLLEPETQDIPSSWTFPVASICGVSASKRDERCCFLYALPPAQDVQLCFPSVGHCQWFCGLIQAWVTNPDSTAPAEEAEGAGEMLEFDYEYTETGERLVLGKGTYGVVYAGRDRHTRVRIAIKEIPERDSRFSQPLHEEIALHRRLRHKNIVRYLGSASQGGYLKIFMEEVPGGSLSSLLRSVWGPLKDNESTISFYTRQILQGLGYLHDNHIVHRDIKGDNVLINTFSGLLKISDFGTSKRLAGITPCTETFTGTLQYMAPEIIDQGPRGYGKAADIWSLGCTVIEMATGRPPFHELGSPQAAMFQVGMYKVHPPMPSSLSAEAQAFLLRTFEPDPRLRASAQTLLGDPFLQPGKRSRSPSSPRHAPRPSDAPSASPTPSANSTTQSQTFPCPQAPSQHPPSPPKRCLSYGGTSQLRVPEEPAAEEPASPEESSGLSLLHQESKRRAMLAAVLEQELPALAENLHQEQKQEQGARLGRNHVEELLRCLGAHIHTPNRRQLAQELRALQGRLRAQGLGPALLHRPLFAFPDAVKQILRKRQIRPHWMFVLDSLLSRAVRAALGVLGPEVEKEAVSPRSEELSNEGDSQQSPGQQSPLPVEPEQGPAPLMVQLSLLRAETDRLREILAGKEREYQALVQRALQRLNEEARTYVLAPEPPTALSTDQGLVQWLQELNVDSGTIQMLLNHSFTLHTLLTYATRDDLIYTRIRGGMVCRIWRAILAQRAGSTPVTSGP

[11] = molecular target: Activin receptor type-1-like (Homo sapiens) (UniProt P37023); assay: Inhibition of ACVRL1 (unknown origin) assessed as residual activity at 100 nM by KINOMEscan analysis relative to control
Chain of Activin receptor type-1-like (Homo sapiens) (P37023 whole entry): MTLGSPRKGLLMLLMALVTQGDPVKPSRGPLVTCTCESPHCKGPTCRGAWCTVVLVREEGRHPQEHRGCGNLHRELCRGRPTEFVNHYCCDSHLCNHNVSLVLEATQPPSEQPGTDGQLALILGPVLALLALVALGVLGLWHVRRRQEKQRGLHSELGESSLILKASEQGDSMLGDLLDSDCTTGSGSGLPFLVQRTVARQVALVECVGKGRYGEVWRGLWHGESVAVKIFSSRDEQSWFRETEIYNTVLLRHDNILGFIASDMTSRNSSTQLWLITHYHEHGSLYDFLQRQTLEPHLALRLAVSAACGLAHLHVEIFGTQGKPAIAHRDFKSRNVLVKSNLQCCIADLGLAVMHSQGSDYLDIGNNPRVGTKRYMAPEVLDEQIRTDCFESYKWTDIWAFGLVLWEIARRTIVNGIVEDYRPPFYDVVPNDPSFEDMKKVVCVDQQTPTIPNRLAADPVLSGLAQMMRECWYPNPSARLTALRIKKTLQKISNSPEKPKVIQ

[12] = molecular target: Insulin receptor (Homo sapiens) (UniProt P06213); assay: Inhibition of INSR (unknown origin) assessed as residual activity at 100 nM by KINOMEscan analysis relative to control
Chain of Insulin receptor (Homo sapiens) (P06213 28-758 limits assumed): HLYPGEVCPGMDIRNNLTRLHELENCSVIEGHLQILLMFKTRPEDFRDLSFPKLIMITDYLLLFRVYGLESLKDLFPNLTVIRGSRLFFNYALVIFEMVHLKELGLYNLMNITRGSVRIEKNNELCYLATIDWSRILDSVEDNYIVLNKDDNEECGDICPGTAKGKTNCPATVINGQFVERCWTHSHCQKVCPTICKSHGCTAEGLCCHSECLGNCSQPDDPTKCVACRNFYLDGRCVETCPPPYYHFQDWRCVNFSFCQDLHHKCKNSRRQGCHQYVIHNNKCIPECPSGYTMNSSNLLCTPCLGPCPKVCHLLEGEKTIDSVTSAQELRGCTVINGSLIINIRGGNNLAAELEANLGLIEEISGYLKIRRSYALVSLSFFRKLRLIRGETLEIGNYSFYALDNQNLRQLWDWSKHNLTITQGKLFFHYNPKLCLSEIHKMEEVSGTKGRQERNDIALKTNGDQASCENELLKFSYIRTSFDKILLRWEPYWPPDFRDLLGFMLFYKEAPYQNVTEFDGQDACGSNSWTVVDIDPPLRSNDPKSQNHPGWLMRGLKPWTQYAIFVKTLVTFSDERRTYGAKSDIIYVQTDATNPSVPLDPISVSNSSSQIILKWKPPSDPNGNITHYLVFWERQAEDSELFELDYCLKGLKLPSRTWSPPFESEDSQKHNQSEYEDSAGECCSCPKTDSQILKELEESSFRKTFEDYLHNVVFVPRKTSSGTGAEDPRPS
Chain of Insulin receptor (Homo sapiens) (P06213 763-1382 limits assumed): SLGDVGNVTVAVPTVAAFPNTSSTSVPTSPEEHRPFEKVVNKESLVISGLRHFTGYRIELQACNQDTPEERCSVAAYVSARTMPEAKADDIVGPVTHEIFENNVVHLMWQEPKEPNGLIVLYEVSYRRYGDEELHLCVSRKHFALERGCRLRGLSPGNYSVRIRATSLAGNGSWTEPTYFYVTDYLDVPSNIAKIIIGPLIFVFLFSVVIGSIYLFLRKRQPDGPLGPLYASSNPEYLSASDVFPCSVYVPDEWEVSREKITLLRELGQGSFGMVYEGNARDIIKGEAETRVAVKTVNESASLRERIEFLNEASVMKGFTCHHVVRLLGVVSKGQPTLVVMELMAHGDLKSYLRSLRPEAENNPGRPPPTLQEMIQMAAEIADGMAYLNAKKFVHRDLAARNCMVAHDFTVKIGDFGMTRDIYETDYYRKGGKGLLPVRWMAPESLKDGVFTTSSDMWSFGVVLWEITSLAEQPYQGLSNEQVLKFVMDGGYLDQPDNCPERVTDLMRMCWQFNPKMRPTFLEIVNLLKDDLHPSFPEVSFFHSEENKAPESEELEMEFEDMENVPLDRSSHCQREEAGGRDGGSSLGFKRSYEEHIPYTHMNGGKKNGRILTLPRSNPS

Which results are given for COc1cc2ncnc(N[C@H](C)c3cccc4ccccc34)c2cc1OC?
Activity [1]: 100%; Activity [2]: 100%; Activity [3]: 82%; Activity [4]: 100%; Activity [5]: 90%; Activity [6]: 97%; Activity [7]: 87%; Activity [8]: 94%; Activity [9]: 100%; Activity [10]: 71%; Activity [11]: 82%; Activity [12]: 88%
